Experimental data published in patent US9925232B2, “Methods and compositions comprising desmopressin in combination with a 5-alpha reductase inhibitor” (Serenity Pharmaceuticals LLC, priority 2013, dated 2018).

Columns and labels:
[1] = tested on: patients experiencing on average at least two nocturnal voids per night; assay: Clinical study: reduction in the average number of nocturnal voids (Responder / Non-Responder); format: in vivo, human
Method: A clinical study was performed to evaluate the impact of administering desmopressin in combination with a 5-alpha reductase inhibitor alone or together with an alpha-adrenergic receptor antagonist to reduce the occurrence of nocturnal voiding by a patient. Experimental procedures and results are described below. […] Patients received as a nasal spray either (i) a 1.5 μg dosage of desmopressin or (ii) placebo. The desmopressin nasal spray (or placebo) was administered daily just prior to bedtime for a duration of twelve weeks. In addition, patients previously diagnosed as suffering from benign prostatic hyperplasia (BPH) and receiving a 5-alpha reductase inhibitor alone or together with an alpha-adrenergic receptor antagonist for treatment of BPH continued to receive the 5-alpha reductase inhibitor alone or together with the alpha-adrenergic receptor antagonist at the same dosage and frequency used prior to enrollment in this study. All patients in this study who received a 5-alpha reductase inhibitor alone or together with an alpha-adrenergic receptor antagonist for treatment of their BPH had been receiving the 5-alpha reductase inhibitor alone or together with the alpha-adrenergic receptor antagonist for at least 2 months before enrollment in this study and experienced on average at least two nocturnal voids per night before enrollment in this study. The desmopressin nasal spray was prepared by combining aliquots of an Emulsion Stock Solution and a Buffer Solution as described below. To produce the desmopressin nasal spray, aliquots of the 30 μg/mL solution were filtered to eliminate any bacterial contamination and diluted with an equal volume of emulsion stock solution to produce aseptic, preservative free dose forms comprising 15 μg/mL desmopressin, pH 5.5, containing 2% cyclopentadecanolide. These were bottled in sterile pump spray bottles fitted with a Pfeiffer APF pump sprayers that deliver 100 μL per metered spray (i.e., 1.5 μg desmopressin (i.e., 1500 ng desmopressin) per spray). The liquid contains no detectable microorganisms. Patients recorded the occurrence of nocturnal voids during the study period. Patients were designated to be a “Responder” if after receiving treatment there was a reduction in the average number of nocturnal voids during the treatment period.

[2] = human, in vivo; cited from earlier work
[3] = BPH patients receiving 5-alpha reductase inhibitor alone or together with alpha-adrenergic receptor antagonist, 1.5 μg nasal spray daily, twelve weeks, n = 14
[4] = BPH patients, second component none (no 5-alpha reductase inhibitor or alpha-adrenergic receptor antagonist), 1.5 μg nasal spray daily, twelve weeks, n = 42
[5] = BPH patients, alpha-adrenergic receptor antagonist and 5-alpha reductase inhibitor, 1.5 μg desmopressin nasal spray daily, twelve weeks, n = 14
[6] = BPH patients, second component 5-alpha reductase inhibitor, 1.5 μg desmopressin nasal spray daily prior to bedtime, twelve weeks, n = 14
[7] = male patients without BPH, second component none, 1.5 μg nasal spray daily, twelve weeks, n = 34

NC(=O)CC[C@@H]1NC(=O)[C@H](Cc2ccccc2)NC(=O)[C@H](Cc2ccc(O)cc2)NC(=O)CCSSC[C@@H](C(=O)N2CCC[C@H]2C(=O)N[C@H](CCCN=C(N)N)C(=O)NCC(N)=O)NC(=O)[C@H](CC(N)=O)NC1=O [Desmopressin, 1-desamino-8-D-arginine vasopressin]
Difference in Responder Response Rate Between Desmopressin-treated Patients & Those Receiving Placebo ([1]; BPH patients receiving 5-alpha reductase inhibitor alone or together with alpha-adrenergic receptor antagonist): 40%
Non-Responder Patients: Total Number of Patients that Received Desmopressin [1, 3]: 6
Percent Total Non-Responder Patients that Received Desmopressin [1, 3]: 43% (6/14)
Percent Total Responder Patients that Received Desmopressin (absolute response rate) [1, 3]: 57%
Responder Patients: Total Number of Patients that Received Desmopressin [1, 3]: 8
Difference in Responder Response Rate Between Desmopressin-treated Patients & Those Receiving Placebo ([1]; BPH patients receiving 5-alpha reductase inhibitor alone or together with alpha-adrenergic receptor antagonist, listed as desmopressin): 40%
Difference in Responder Response Rate Between Desmopressin-treated Patients & Those Receiving Placebo ([1]; BPH patients that did not receive a 5-alpha reductase inhibitor or an alpha-adrenergic receptor antagonist): 14%
Difference in Responder Response Rate Between Desmopressin-treated Patients & Those Receiving Placebo ([1]; BPH patients that did not receive a 5-alpha reductase inhibitor or an alpha-adrenergic receptor antagonist, listed as desmopressin): 14%
Non-Responder Patients: Number of Patients that Received Desmopressin [1, 4]: 24
Percent Total Non-Responder Patients that Received Desmopressin [1, 4]: 57%
Percent Total Responder Patients that Received Desmopressin (absolute response rate) [1, 4]: 43%
Responder Patients: Number of Patients that Received Desmopressin [1, 4]: 18
Percent Total Responder Patients that Received Desmopressin (absolute response rate) ([1]; BPH patients, second component none (no 5-alpha reductase inhibitor or alpha-adrenergic receptor antagonist), 1.5 μg nasal spray daily, twelve weeks, n = 42, listed as desmopressin): 43%
Non-Responder Patients: Number of Patients that Received Desmopressin [1, 5]: 2
Responder Patients: Number of Patients that Received Desmopressin [1, 5]: 5
Non-Responder Patients: Number of Patients that Received Desmopressin [1, 6]: 4
Responder Patients: Number of Patients that Received Desmopressin [1, 6]: 3
Difference in Responder Response Rate Between Desmopressin-treated Patients & Those Receiving Placebo ([1]; male patients not diagnosed with BPH, not receiving a 5-alpha reductase inhibitor or an alpha-adrenergic receptor antagonist): 18%
Difference in Responder Response Rate Between Desmopressin-treated Patients & Those Receiving Placebo ([1]; male patients not diagnosed with BPH, not receiving a 5-alpha reductase inhibitor or an alpha-adrenergic receptor antagonist, listed as desmopressin): 18%
Non-Responder Patients: Number of Patients that Received Desmopressin [1, 7]: 16
Percent Total Non-Responder Patients that Received Desmopressin [1, 7]: 47%
Percent Total Responder Patients that Received Desmopressin (absolute response rate) [1, 7]: 53%
Responder Patients: Number of Patients that Received Desmopressin [1, 7]: 18
Percent Total Responder Patients that Received Desmopressin (absolute response rate) ([1]; male patients without BPH, second component none, 1.5 μg nasal spray daily, twelve weeks, n = 34, listed as desmopressin): 53%
half-life (known clearance rate) [2]: 1.5 to 2.0 h
